# Measurements reported in patent US20040044304A1, “Local drug delivery using photosensitizer-mediated and electromagnetic radiation enhanced vascular permeability” (priority 2002, published 2004).
# Read-outs that look alike come from different tables or passages of the source.
# What was measured:
# [1] = Molar extinction coefficient of the photosensitizer; format: physicochemical; design: Molar extinction coefficient: unit not given here; conditions: for Peak extinction coefficient: in M-1 cm-1 (unit assumed)
# [2] = system: vascular structures in the dorsal window chamber; format: in vivo, mice of strain C3H; conditions: MRV6401 0.05 mg/kg i.v., red 660 nm-680 nm
# Description: Male mice of strain C3H (sourced from The Jackson Laboratory, 600 Main Street, Bar Harbor, Me. 04609, USA) weighing between 28-30 grams were surgically implanted with titanium back-pack window chambers in a similar manner to that described in Example 2. A chamber was considered suitable for subsequent studies if microscopic examination of the preparation met the same criteria as those described in Example 2. The intra-vital microscopic studies were undertaken on unsedated animals held in the same Plexiglass tube assembly as that described in Example 2. The intra-vital microscopy was also performed using the same Leitz Dialux 22 microscope fitted with the same objective lenses, and mercury lamp trans- and epi-illumination sources. However, for the studies described in Example 3, the irradiation source was not a DD4 laser, but rather, activation of the photosensitizers was undertaken using narrow band filtered light from the mercury lamp epi-illumination source. Two different wavelength bands were used to activate the photosensitizers, namely green or red light (see Table 5 below). These wavelengths were obtained by use of filter cubes placed in a Leitz Ploemopak illumination system (NcBain Instruments, Inc., 9601 […] Avenue, Chatsworth, Calif., 91311, USA) fitted to the Leitz Dialux 22 microscope. For activation using green light epi-illumination (530 nm-560 nm) the BP 530-560 band pass excitation filter of the Leitz Ploemopak N2 cube (Cat. No. 513-609, E. Leitz Inc., Rockleigh, N.J., 07647, USA) was used. For activation using red light epi-illumination (660 nm-680 nm) a 670DF20 band pass filter (Cat. No., XF1028, Omega Optical Co., Brattleboro, Vt., 05302, USA) fitted in a Leitz Ploemopak cube was used. In all cases, the activation of the photosensitizer was performed in a defined region that was smaller than the total field of tissue contained within the window chamber. The total mouse dorsal tissue contained within the window chambers was a circle of 1.0 cm diameter, corresponding to a total area of approximately 0.785 cm^2. The illumination field of the activating light was a circle of 0.225 cm diameter, corresponding to a total area of approximately 0.040 cm^2. Thus, approximately 5% of the total area of the chamber was directly illuminated. Mice bearing a dorsal window chamber were placed in the Plexiglass restrainer on the microscope stage for pre-treatment evaluation of the vascular structures. Prior to photosensitizer administration, the architecture of the vascular structures in the entire window chamber in all mice was examined using 410 nm filtered blue light from the mercury trans-illumination source of the intra-vital microscope, and the images which were generated were recorded on video tape for subsequent evaluation. The methods for imaging and recording were as described in Example 2. Briefly, the imaging source was a […] mercury arc lamp (Type 307-143.004 from Ernst Leitz Wetzlar GmBH, Germany) which was powered by an HBO 100 power supply (LEP Ltd., Scarsdale, N.Y.). The output from this source was filtered using a #H43157 interference filter (Edmund Scientific, 101 East Gloucester Pike, Barrington, N.J., 08007-1380), to produce a beam of 410 nm light. Typically, the power density of the imaging light was less than 0.6 […]^2. Two or three fields in each chamber were designated as fields of interest and their location recorded for post-treatment evaluation. These fields were chosen such that they were not adjacent to each other, and one of these fields was chosen so that it was within the region of the chamber that was to receive the activating light illumination. Following identification, recording and designation of the fields of interest, mice were injected with either the photosensitizer […] Medical Technologies, 336 Bollay Drive, Santa Barbara, Calif., 93117) formulated in egg yolk phospholipid ([…] Polar Lipids, Inc., 700 Industrial Park Avenue, Alabaster, Ala., 35007), the photosensitizer […]
# [3] = animal #10, 12 J/cm^2, probe 6 min post light irradiation
# [4] = animal #13, 8 J/cm^2, probe administered 24 hr post light irradiation
smiles,measurement,setting,value
"CCOC(=O)C1=Cc2c3nc(cc4nc(cc5[n-]c(cc6[n-]c2c(C)c6CC)c(C)c5CC)C(C)=C4CC)[C@@H](C)[C@]13CC.[Cl-].[Cl-].[Sn] (racemic) [SnET2, tin ethyl etiopurpurin]",Peak extinction coefficient,[1]; at 437 nm,"165,456"
same,Peak extinction coefficient,[1]; at 661 nm,"52,552"
same,Absorbance at activation wavelength relative to peak spectral absorbance,[1]; green 530 nm-560 nm,less than 5%
same,Molar extinction coefficient,[1]; green wavelength band 530 nm-560 nm,4312
"C=Cc1c(C)c2[n]3c1=CC1=NC(=Cc4c(C)c5c([n]4[In]3[Cl])C(=C3N=C(C=2)[C@@H](C)[C@@H]3CCC(=O)OC)CC5=O)C(CC)=C1C [MV6401, indium methyl pyropheophorbide]",TRITC-Dextran in tissue and cells in regions outside the treatment field at 24 hr time point,"[2]; animal #8, 12 J/cm^2, 155 kD probe 10 min post light irradiation",no significant fluorescence from TRITC-Dextran
same,Leakage of 155 kD TRITC-Dextran in the treatment field at 24 hr time point,"[2]; animal #8, 12 J/cm^2, probe 10 min post light irradiation",significant leakage in region 2
same,"Leakage of secondary probe 150 kD FITC-Dextran from vessels in the treatment field, 20 min post probe","[2]; animal #8, 12 J/cm^2, probe administered 24 hr post light irradiation",leakage of FITC from vessels in the treated region 2
same,"Leakage of secondary probe 150 kD FITC-Dextran from vessels outside the treatment field, 20 min post probe","[2]; animal #8, 12 J/cm^2, probe administered 24 hr post light irradiation, 0.05 mg/kg",some minimal leakage from the vessels in region 1
same,150 kD FITC-Dextran in tissue and cells surrounding vessels (regions 1 treated and 3) at 24 hr,"[2]; animal #10, 12 J/cm^2","pattern was apparent at the 2 hr time point, and at the 24 hr time point there was FITC-Dextran present at high levels"
same,Leakage of 150 kD FITC-Dextran from the treated vessels at 1 hr post probe administration,[2]; [3],with significant leakage apparent
same,Leakage of 150 kD FITC-Dextran from vessels outside the treatment field at 1 hr post probe administration,[2]; [3],"from the treated vessels in region 1, some minor leakage from vessels in region 3 and no leakage from vessels in region"
same,"2,000 kD FITC-Dextran leakage in tissue and cells outside the treatment field at 24 hr","[2]; animal #11, 12 J/cm^2",FITC-Dextran uptake in tissues and cells in this region. The tissue and cells in regions 2 and 3 showed some minor
same,"Leakage of 2,000 kD FITC-Dextran from vessels outside the treatment field at 1 hr","[2]; animal #11, 12 J/cm^2, probe 19 min post light irradiation",no leakage from vessels in regions 2 and 3
same,"Leakage of 2,000 kD FITC-Dextran from vessels outside the treatment field at 1 hr","[2]; animal #12, 8 J/cm^2, probe 3 min post light irradiation",no leakage from vessels in regions 2 and 3
same,Leakage of secondary probe 155 kD TRITC-Dextran from vessels in the treatment field,"[2]; animal #12, 8 J/cm^2, probe administered 24 hr post light irradiation",significant on-going leakage from vessels in region 1
same,"Leakage of secondary probe 2,000 kD FITC-Dextran from vessels in the treatment field",[2]; [4],significant on-going leakage from vessels in region 1
same,"Leakage of secondary probe 2,000 kD FITC-Dextran from vessels outside the treatment field",[2]; [4],no evidence of on-going leakage
